For this test, the system named is 287954-098-R-J1 tumor spheroid viability. Kind of test: Anticancer human tumor 287954-098-R-J1 patient-derived Ewing sarcoma cell line growth inhibition. The following applies: spheroids with HUVEC and MSC; for viability, T/C: stronger effect = lower value. The text has this: Multicellular complex tumor spheroid response to DNA repair inhibitors in combination with DNA-damaging drugs
This study explores the anticancer activities of DNA-damaging drugs and inhibitors of DNA damage repair, both as single agents and in combinations. Complex tumor spheroids comprised of malignant cells, endothelial cells and mesenchymal stem cells served as an in vitro model for human solid tumors. This model system incorporates physiologically relevant features and patient-derived or established malignant cell lines with clinically relevant genetic alterations from many tumor types. Twenty-six patient-derived or established malignant cell lines were evaluated representing sarcoma, melanoma, small cell lung cancer (SCLC), non-small cell lung cancer (NSCLC), as well as bladder, ovarian and pancreatic cancers. The concentration ranges selected for each drug and investigational agent were based upon clinically achievable concentrations if the clinical Cmax of the agent was known.
Compounds. The drugs and compounds olaparib (NSC753686), talazoparib (NSC767125), berzosertib (NSC777718), elimusertib (NSC800525), nedisertib (NSC802822), VX-984 (NSC792969), AZD-1390 (NSC803789), temozolomide (NSC362856), topotecan (NSC609699), trabectedin (NSC813783), staurosporine (NSC755774), and gemcitabine (NSC613327) were obtained from the National Cancer Institute (NCI) Developmental Therapeutics Program Chemical Repository. The FDA-approved anticancer drug set is available from the Developmental Therapeutics Program at https://dtp.cancer.gov/organization/dscb/obtaining/available_plates.htm. […] The stock solutions were prepared in dimethyl sulfoxide (DMSO, Sigma-Aldrich, St. Louis, MO, cat. D2650) at 400-fold the tested concentration and stored at -70 degrees C. Prior to their use, the stock solutions were diluted in fresh medium and the final DMSO concentration in the assay was 0.25% (v/v). All drugs and investigational agents were tested over a range starting from a high concentration at or near the clinical Cmax and decreasing in half-log increments. If the clinical Cmax for an agent had not been determined, the highest concentration tested was 10 microM.
Cell Lines. The patient-derived cancer cell (PDC) lines: 156681-154-R-J1-PDC, 283228-195-R-J1-PDC, 287954-098-R-J1-PDC, 292921-168-R-J2-PDC, 349418-098-R-PDC, 425362-245-T-J1-PDC, 556581-035-R-J1-PDC, and BL0293-F563-PDC were received from the NCI Patient-Derived Models Repository (PDMR, https://pdmr.cancer.gov). The established cell lines HS-SY-2 (RRID:CVCL_8719), MPNST, and SYO-1 (RRID:CVCL_7146) were obtained from the Sloan Kettering Institute. The alveolar soft parts sarcoma cell line ASPS-1 (RRID:CVCL_S738) was established at the NCI and grown from internal seed stocks. The following established cell lines were purchased from the American Type Culture Collection (ATCC, Manassas, VA): G-401 (ATCC, cat. CRL-1441, RRID:CVCL_0270), SW982 (ATCC, cat. HTB-93, RRID:CVCL_1734), VA-ES-BJ (ATCC, cat. CRL-2138, RRID:CVCL_1785), NCI-H719 (ATCC, cat. CRL-5837, RRID:CVCL_1582), NCI-H196 (ATCC, cat. CRL-5823, RRID:CVCL_1509), NCI-H841 (ATCC, cat. CRL-5845, RRID:CVCL_1595), NCI-H1618 (ATCC, cat. CRL-5879, RRID:CVCL_1480), NCI-H1876 (ATCC, cat. CRL-5902, RRID:CVCL_1503), DMS 114 (ATCC, cat. CRL-2066; RRID:CVCL_1174), NCI-H211 (ATCC, cat. CRL-5824; RRID:CVCL_1529), and SW 1271 (ATCC, cat. CRL-2177, RRID:CVCL_1716). The small cell lung cancer cell line COR-L88 was purchased from Sigma-Aldrich (cat. 92031917-1VL, RRID:CVCL_1141). The non-small cell lung cancer cell lines NCI-H226 (RRID:CVCL_1544) and NCI-H322M (RRID:CVCL_1557) were established at the NCI and grown from internal seed stocks. Pooled donor human umbilical vein endothelial cells (HUVEC, Lonza, cat. CC-2519) and human mesenchymal stem cells (hMSC, Lonza, cat. PT-2501) were purchased from Lonza (Walkersville, MD).
Cell Culture. All cells were maintained in an incubator at 37 degrees C and 5% CO2 with 95% humidity. […]

Several values for one entry are separate records, joined by “and”; a condition that tells them apart may be missing. Equal entries are not always repeated.

Among the data in PubChem BioAssay AID1845194 (Molecular Pharmacology Branch, DTP, NCI, 2023) are viability, T/C and IC50 values, retold here.
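Further: spheroids exposed to compound for 7 days before viability readout.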
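Wherever viability, T/C is given: luminescent signal taken as surrogate of viable cell content; 100% = DMSO vehicle control viability and lower means growth inhibition.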

Turning to `COc1ccc([C@@H](O)c2cc(-c3ncnc4cc(N5CCOCC5)ccc34)c(F)cc2Cl)nn1`, the viability, T/C (compound 0.0316 µM) was 96.1% and 101% and 92.6%; the viability, T/C (compound 0.1 µM) was 96% and 113% and 96.1%; the viability, T/C (compound 0.316 µM) was 97% and 107% and 92.6%; the viability, T/C (compound 1 µM) was 105% (2×) and 102%; the viability, T/C (compound 3.16 µM) is 109% and 98.1% and 100%; the viability, T/C (compound 10 µM) was 103% and 87.1% and 82.1%. For the same compound, under “curve of compound”, the IC50 was more than 10 µM.

`Cn1nnc2c(C(N)=O)ncn2c1=O`: the viability, T/C (compound 1 µM) is 101% [middle of 10 runs]; the viability, T/C (compound 3.16 µM) is 101% [middle of 10 runs]; the viability, T/C (compound 10 µM) is 105% [middle of 10 runs]; the viability, T/C (compound 31.6 µM) was 111% [middle of 10 runs]; the viability, T/C (compound 100 µM) was 100% [middle of 10 runs]. Also, the IC50 (compound alone, run of 10/17/2019) is more than 100 µM.

For `O=C(c1cc(Cc2n[nH]c(=O)c3ccccc23)ccc1F)N1CCN(C(=O)C2CC2)CC1`, the viability, T/C was 103% (compound 0.0949 µM); 91.4% and 92.4% and 106% (compound 0.3 µM); 91.6% and 89.5% and 109% (compound 0.949 µM); 90.2% and 93.9% and 108% (compound 3 µM); 87.1% and 76.8% and 96.1% (compound 9.49 µM). Further, the IC50 (curve of compound) was 21.4 µM and 14.9 µM and 20.2 µM.

On to `[2H]c1nc(C)nc([2H])c1-c1cc(NC[C@@H](C)c2cccc3c(C(=O)NC)ccnc23)ncn1`, for which the viability, T/C is, setting by setting: (compound 0.0316 µM) 96.4% and 109% and 110%; (compound 0.1 µM) 101% and 107% and 112%; (compound 0.316 µM) 95.5% and 108% and 106%; (compound 1 µM) 104% and 102% and 108%; (compound 3.16 µM) 98.3% and 96.3% and 100%; (compound 10 µM) 101% and 103% and 109%. For the same compound, the IC50 (curve of compound) was more than 10 µM.

As to `O=C(c1cc(Cc2n[nH]c(=O)c3ccccc23)ccc1F)N1CCN(C(=O)C2CC2)CC1` + CC[C@@]1(O)C(=O)OCc2c1cc1n(c2=O)Cc2cc3c(CN(C)C)c(O)ccc3nc2-1, the half-inhibitory concentration (IC50) (curve of first compound, second compound 0.003 µM) was 5.24 µM; the IC50 (curve of first compound, second compound 0.00949 µM) turned out to be 3.84 µM; the IC50 (curve of first compound, second compound 0.03 µM) is less than 0.0949 µM; the IC50 (curve of first compound, second compound 0.0949 µM) is less than 0.0949 µM; the IC50 (curve of first compound, second compound 0.3 µM) is less than 0.0949 µM. The viability, T/C (second compound 0.003 µM, first compound 0.0949 µM) was 93.7%; the viability, T/C (second compound 0.003 µM, first compound 0.3 µM) was 96.7%; the viability, T/C (second compound 0.003 µM, first compound 0.949 µM) is 96.2%; the viability, T/C (second compound 0.003 µM, first compound 3 µM) was 93.9%; the viability, T/C (second compound 0.003 µM, first compound 9.49 µM) is 3.33%; the viability, T/C (second compound 0.003 µM, first compound 30 µM) is 1.93%. In addition, the viability, T/C reads like this: (second compound 0.00949 µM, first compound 0.0949 µM) 92.9%; (second compound 0.00949 µM, first compound 0.3 µM) 95.3%; (second compound 0.00949 µM, first compound 0.949 µM) 82.9%; (second compound 0.00949 µM, first compound 3 µM) 63.2%; (second compound 0.00949 µM, first compound 9.49 µM) 1.84%; (second compound 0.00949 µM, first compound 30 µM) 1.78%. The viability, T/C by setting is: (second compound 0.03 µM, first compound 0.0949 µM) 2.21%; (second compound 0.03 µM, first compound 0.3 µM) 2.14%; (second compound 0.03 µM, first compound 0.949 µM) 2.31%; (second compound 0.03 µM, first compound 3 µM) 2.28%; (second compound 0.03 µM, first compound 9.49 µM) 1.82%; (second compound 0.03 µM, first compound 30 µM) 1.46%. The viability, T/C reads like this: (second compound 0.0949 µM, first compound 0.0949 µM) 2.17%; (second compound 0.0949 µM, first compound 0.3 µM) 1.78%; (second compound 0.0949 µM, first compound 0.949 µM) 1.87%; (second compound 0.0949 µM, first compound 3 µM) 1.93%; (second compound 0.0949 µM, first compound 9.49 µM) 1.76%; (second compound 0.0949 µM, first compound 30 µM) 1.56%. The viability, T/C is, setting by setting: (second compound 0.3 µM, first compound 0.0949 µM) 1.94%; (second compound 0.3 µM, first compound 0.3 µM) 1.89%; (second compound 0.3 µM, first compound 0.949 µM) 1.84%; (second compound 0.3 µM, first compound 3 µM) 1.71%; (second compound 0.3 µM, first compound 9.49 µM) 1.55%; (second compound 0.3 µM, first compound 30 µM) 1.28%.

As a reminder, the viability, T/C is the ratio of treated to control. In general, IC50 refers to the point on the concentration scale where inhibition reaches its midpoint.
